Measured values taken from patent publication EP1484329A1, “Indole derivatives with apoptosis inducing activity” (Zentaris GmbH, priority 2003, dated 2004).
≈ marks a conversion by molar mass, not a printed value. Read-outs that look alike come from different tables or passages of the source.

Legend:
A431 = experiment: XTT proliferation assay, A431; assay type: cell-based, human; conditions: Homo sapiens, read-out: XTT Proliferationsassay, EC50 A431
Text: (§1) Die Substanzen 1,2, 4-6 wurden in einem Proliferationstest an etablierten Tumorzelllinien auf ihre anti-proliferative Aktivität hin untersucht (D.A. Scuderio et al. Cancer Res. 1988, 48, 4827-4833). Der verwendete Test bestimmt die zelluläre Dehydrogenase-Aktivität und ermöglicht eine Bestimmung der Zellvitalität und indirekt der Zellzahl. Bei den verwendeten Zelllinien handelt es sich um die humane Cervixkarzinom Zelllinie KB/HeLa (ATCC CCL17), die ovariale Adenokarzinomzelllinie SKOV-3 (ATCC HTB77), die humane Glioblastom Zelllinie SF-268 (NCI 503138) und die Lungenkarzinom Zelllinie NCI-H460 (NCI 503473). Des weiteren wurde zur Untersuchung der Zellzyklus-spezifischen Wirkung der Substanz ein RKOp27 Zellsystem verwendet (M. Schmidt et al. Oncogene19(20):2423-9, 2000). Bei RKO handelt es sich um eine humane Kolonkarzinomlinie, in der der Zellzyklusinhibitor p27 ^kip1 mittels des Ecdyson Expressionssystems induziert zur Expression gebracht und zu einem Zellzyklusarrest spezifisch in G2 geführt werden kann. Eine unspezifisch wirkende Substanz hemmt die Proliferation unabhängig davon, ob die RKO Zelle in G1 oder G2 arretiert ist oder nicht. Zellzyklus-spezifische Substanzen wie beispielsweise Tubulininhibitoren sind hingegen nur dann zytotoxisch, wenn Zellen nicht arretiert sind und der Zellzyklus durchlaufen wird. In Tabelle 1 ist die zytotoxische bzw. wachstumshemmende Aktivität der beschriebenen Verbindungen mit / ohne Expression von p27^kip1gezeigt. Die getesteten Verbindungen zeigten im induzierten Zustand von p27^kiP1 keine zytotoxische Aktivität. Die Ergebnisse zeigen eine sehr potente Hemmung der Proliferation ausgewählter Tumorzelllinien durch die genannten Substanzen. Tabelle 1:
(§2) Zur weiteren Charakterisierung wurden die Substanzen 1-6 an einem Panel von 7 humanen Tumorzelllinien auf ihre anti-proliferative Wirkung hin untersucht. Bei den untersuchten Zelllinien handelt es sich um die humanen Glioma Zelllinien A172 (ATCC CRL-1620) und U118 (ATCC HTB-15), die humane Lungenkarzinom Zelllinie A549, das humane epidermoide Karzinom A431 (ATCC CRL-2592), die humanen Prostatakarzinom Zelllinien DU145 (ATCC HTB-81) und PC3 (ATCC CRL-1435) und die humane Kolon Adenokarzinomzelllinie HT29 (ATCC HTB-38). Es handelt sich hierbei um sehr gut charakterisierte, etablierte Zelllinien, die von ATCC, ECACC bzw. NCI erhalten und in Kultur genommen wurden. Die in Tab. […]

L1210 = experiment: XTT proliferation assay, L1210 (wild type); assay type: cell-based, murine
Text: as §1
(§3) Zur weiteren Charakterisierung wurden die Substanzen 1,2,4-6 gegenüber multi drug resistenten Zelllinien im Vergleich zu den nicht-resistenten Wildtypzelllinien untersucht.
(§4) Bei den untersuchten Zelllinien handelt es sich um die murine L1210, die akute myeloische Leukaemie Zelllinie LT12 und um die resistenten Linien L1210/mdr und LT12/mdr. Außerdem wurden die murine P388 Zelllinie (methyl-cholanthreneinduced lymphoid neoplasm) sowie die Doxorubicin-resistente P388 als Testsysteme herangezogen.

Topoisomerase II = Topoisomerase II (Homo sapiens, UniProt P11388); experiment: pRYG relaxation assay for topoisomerase II activity; assay type: biochemical; conditions: tested at 100, 31.6 and 10 µM
Protocol: Mit diesem Relaxationsassay konnte zusätzlich die inhibitorische Eigenschaft der erfindungsgemäßen Verbindungen auf Topoisomerase II gezeigt werden. Die Testung der erfindungsgemäßen Verbindungen 2 und 4 erfolgte hierbei bei drei unterschiedlichen Konzentrationen (100, 31.6 und 10 µM). Zum Vergleich setzte man die Referenzverbindung m-Amsacrin bei einer Konzentration von 100µM ein.
Zu 1µL vorgelegter Testsubstanz (20fach konzentriert in 100% DMSO) werden 2µL 10x Assay Puffer, 0,5µL pRYG DNA (125ng), 0,5µL human Topoisomerase II (1 unit) und 16µL H2O pipettiert und gemischt. Die Reaktionsansätze werden in den auf 37°C vorgeheizten Heizblock gestellt und 30min bei 37°C inkubiert. Die Inkubation wird nach Zugabe von 4µL 5x Stop Puffer abgestoppt. Danach werden 10µL des Ansatzes auf ein 1,2% Agarosegel mit 0,25µg/mL Ethidiumbromid aufgetragen und 2,5h bei 100V aufgetrennt. Zum Schluß wird das Gel unter UV Anregung fotografiert (s. Graph 3). Die Quantifizierung der Inhibierung der pRYG Relaxation erfolgt mit der GeIPro® Analyzer Software (s. Graph 4). [formula] [formula]

LT12mdr = experiment: XTT proliferation assay, LT12mdr (resistant); assay type: cell-based; conditions: read-out: XTT Proliferationsassay, EC50 LT12mdr
Text: as §1, §3, §4

A549 = experiment: XTT proliferation assay, A549; assay type: cell-based, human; conditions: Homo sapiens, read-out: XTT Proliferationsassay, EC50 A549
Text: as §1, §2

P388 = experiment: XTT proliferation assay, P388 (wild type); assay type: cell-based, murine
Text: as §1, §3, §4

SKOV-3 = experiment: XTT proliferation assay, SKOV-3; assay type: cell-based; conditions: Homo sapiens, SK-OV-3; read-out: XTT Proliferationsassay, EC50 SKOV3
Text: as §1, with “Substanzen.” for “Substanzen. Tabelle 1:”

L1210VCR = experiment: XTT proliferation assay, L1210VCR (resistant); assay type: cell-based, murine
Text: as §1, §3, §4

LT12 = experiment: XTT proliferation assay, LT12 (wild type); assay type: cell-based
Text: as §1, §3, §4

HT29 = experiment: XTT proliferation assay, HT29; assay type: cell-based, human; conditions: Homo sapiens, read-out: XTT Proliferationsassay, EC50 HT29
Text: as §1, §2

Sequence of Topoisomerase II (P11388 whole entry): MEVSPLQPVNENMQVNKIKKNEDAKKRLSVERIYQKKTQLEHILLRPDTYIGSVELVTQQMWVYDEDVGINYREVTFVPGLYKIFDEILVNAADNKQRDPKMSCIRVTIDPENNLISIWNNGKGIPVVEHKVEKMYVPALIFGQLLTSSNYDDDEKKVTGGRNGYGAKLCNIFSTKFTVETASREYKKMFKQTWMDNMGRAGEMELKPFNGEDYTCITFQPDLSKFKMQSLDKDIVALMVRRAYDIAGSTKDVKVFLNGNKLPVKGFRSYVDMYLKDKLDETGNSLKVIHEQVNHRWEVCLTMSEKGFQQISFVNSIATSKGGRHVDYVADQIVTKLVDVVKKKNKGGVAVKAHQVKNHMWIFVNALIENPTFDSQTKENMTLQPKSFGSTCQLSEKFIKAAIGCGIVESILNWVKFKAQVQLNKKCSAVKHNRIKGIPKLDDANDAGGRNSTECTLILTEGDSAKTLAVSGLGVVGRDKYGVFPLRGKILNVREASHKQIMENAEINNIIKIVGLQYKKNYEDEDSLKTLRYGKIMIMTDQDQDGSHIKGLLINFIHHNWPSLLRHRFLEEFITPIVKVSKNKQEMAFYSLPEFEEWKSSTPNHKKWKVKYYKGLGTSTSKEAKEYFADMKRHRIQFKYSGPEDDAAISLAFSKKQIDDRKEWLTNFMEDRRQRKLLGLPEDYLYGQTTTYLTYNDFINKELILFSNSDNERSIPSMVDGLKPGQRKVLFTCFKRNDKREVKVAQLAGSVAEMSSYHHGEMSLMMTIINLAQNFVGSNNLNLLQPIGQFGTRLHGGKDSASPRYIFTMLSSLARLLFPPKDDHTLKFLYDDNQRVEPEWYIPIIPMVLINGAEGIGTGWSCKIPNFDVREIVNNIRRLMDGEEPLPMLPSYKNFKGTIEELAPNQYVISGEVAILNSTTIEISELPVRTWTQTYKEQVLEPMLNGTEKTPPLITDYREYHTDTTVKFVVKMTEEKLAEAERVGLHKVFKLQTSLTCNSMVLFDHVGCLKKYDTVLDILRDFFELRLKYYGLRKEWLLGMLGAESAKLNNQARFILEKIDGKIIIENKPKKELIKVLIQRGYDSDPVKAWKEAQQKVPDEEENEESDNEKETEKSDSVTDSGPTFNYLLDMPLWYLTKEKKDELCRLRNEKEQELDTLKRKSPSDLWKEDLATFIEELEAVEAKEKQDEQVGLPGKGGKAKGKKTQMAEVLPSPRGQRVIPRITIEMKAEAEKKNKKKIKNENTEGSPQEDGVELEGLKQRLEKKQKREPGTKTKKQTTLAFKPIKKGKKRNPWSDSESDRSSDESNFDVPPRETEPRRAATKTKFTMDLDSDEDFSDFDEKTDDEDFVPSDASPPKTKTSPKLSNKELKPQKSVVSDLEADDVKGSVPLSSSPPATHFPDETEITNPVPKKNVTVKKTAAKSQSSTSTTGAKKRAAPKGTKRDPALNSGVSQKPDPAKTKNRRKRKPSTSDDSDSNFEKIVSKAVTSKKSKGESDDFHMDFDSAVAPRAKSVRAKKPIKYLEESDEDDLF

Structure (SMILES): O=C(Nc1ccc2ncccc2c1)C(=O)c1cn(Cc2ccc(Cl)cc2)c2ccccc12 [Verbindung 2, 2-[1-(4-Chlor-benzyl)-1 H-indol-3-yl]-2-oxo-N-chinolin-6-yl-acetamid]
- EC50 (A431; A-431): 0.014 µg/mL (≈ 0.0318 µM)
- EC50 (L1210; Mus musculus, L1210, read-out: XTT Proliferationsassay, EC50 L1210): 0.074 µg/mL (≈ 0.168 µM)
- Hemmung der Topoisomerase II (pRYG Relaxationsassay) (Topoisomerase II): signifikante Hemmung der Topoisomerase II
- EC50 (LT12mdr): 0.063 µg/mL (≈ 0.143 µM)
- EC50 (A549; A549): 0.05 µg/mL (≈ 0.114 µM)
- EC50 (P388; Mus musculus, P388, read-out: XTT Proliferationsassay, EC50 P388): 0.037 µg/mL (≈ 0.0841 µM)
- EC50 (SKOV-3): 0.018 µg/mL (≈ 0.0409 µM)
- EC50 (L1210VCR; Mus musculus, read-out: XTT Proliferationsassay, EC50 L1210VCR): 0.078 µg/mL (≈ 0.177 µM)
- EC50 (LT12; Rattus norvegicus, LT12, read-out: XTT Proliferationsassay, EC50 LT12): 0.044 µg/mL (≈ 0.1 µM)
- EC50 (HT29; HT-29): 0.027 µg/mL (≈ 0.0614 µM)

Structure (SMILES): O=C(Nc1ccc2ncccc2c1)C(=S)c1cn(Cc2ccc(Cl)cc2)c2ccccc12 [Verbindung 4, 2-[1-(4-Chlorbenzyl)-1 H-indol-3-yl]-N-chinolin-6-yl-2-thioxoacetamid]
- EC50 (A431; A-431, A431): 0.016 µg/mL (≈ 0.0351 µM)
- Hemmung der Topoisomerase II (pRYG Relaxationsassay) (Topoisomerase II): signifikante Hemmung der Topoisomerase II
- EC50 (A549; A549, A549): 0.041 µg/mL (≈ 0.0899 µM)
- EC50 (HT29; HT-29, HT29): 0.04 µg/mL (≈ 0.0877 µM)

Structure (SMILES): O=C(Nc1cnc2nccnc2c1)C(=O)c1cn(Cc2ccc(Cl)cc2)c2ccccc12 [Verbindung 5, 2-[1-(4-Chlor-benzyl)-1H-indol-3-yl]-2-oxo-N-pyrido[2,3-b]pyrazin-7-yl-acetamid]
- EC50 (A431; A-431, A431): 0.011 µg/mL (≈ 0.0249 µM)
- EC50 (L1210; Mus musculus, L1210; read-out: XTT Proliferationsassay, EC50 L1210): 0.018 µg/mL (≈ 0.0407 µM)
- EC50 (LT12mdr): 0.017 µg/mL (≈ 0.0385 µM)
- EC50 (A549; A549, A549): 0.017 µg/mL (≈ 0.0385 µM)
- EC50 (P388; Mus musculus, P388; read-out: XTT Proliferationsassay, EC50 P388): 0.012 µg/mL (≈ 0.0272 µM)
- EC50 (SKOV-3): 0.029 µg/mL (≈ 0.0656 µM)
- EC50 (L1210VCR; Mus musculus; read-out: XTT Proliferationsassay, EC50 L1210VCR): 0.021 µg/mL (≈ 0.0475 µM)
- EC50 (LT12; Rattus norvegicus, LT12; read-out: XTT Proliferationsassay, EC50 LT12): 0.015 µg/mL (≈ 0.0339 µM)
- EC50 (HT29; HT-29, HT29): 0.07 µg/mL (≈ 0.158 µM)
